Data set [1] can be described thus: 3-week safety feeding study with 80 rats. The class given is in vivo. The conditions noted are these: three doses mixed into chow, 3 weeks; highest more than 100 times human doses. The protocol:
Before initiating any clinical tests full proof of safety was received from 3 week in vivo feeding experiments with rats. This 3-week safety study with 80 rats was conducted in Finnish National Institute of Health with three different D-glyceric acid doses mixed into chow. […] Highest doses with rats in the safety study were more than 100 times the doses used for humans in any of the shorter tests presented here.

The test system of the next data set is severe IBD. The class given is in vivo, human. An excerpt:
During the year following acute bowels infection and inflammation described in above (Example 1 e) they were placed by a specialist MD into queue for demanding operation to remove inflammation prone part from their bowels. While waiting for this operation (roughly a year from above described previous serious bowels inflammation (IBD)) S4 got serious IBD again. This happened as a follow up of two-week business trip during which the diet was not at all optimal and working was rather intensive.
By Saturday the symptoms were so severe that S4 could not walk properly. It was decided that […] rests for the weekend and goes to a doctor on Monday morning.
Because based on Example 1 e it is already known that the DGA Activation can efficiently reduce IBD in S4, it was decided that S4 starts using DGA immediately to reduce the inflammation. (Also, all other information presented in this application, including all other experiments and dose response analyses were available already, except for Example 1 g.) Initial dose was set relatively high because the inflammation was very severe and because it is known from all other experiments that there were no negative effects for S4 from the DGA Activation. 3×200 mg mixed into 2 dl of water was taken 3 times during Saturday, first dose at 0300 pm, next dose 2 hours thereafter and the last dose 4 hours after the second dose, i.e. at 0900 pm. Inflammatory symptoms remained high but fever reduced from 36.80 Celsius (before DGA activation) to 36.03 by 0939 pm. Paracetamol (1000 mg) was taken after the last fever measurement thus not affecting the decline. Another paracetamol was taken earlier the day at 0346 pm.

For data set [2], the system named is ethanol-dosed gastric cells. The conditions noted are these: in vitro study, Habe et al.; cited from earlier work.
Another data set relates to fever. Briefly: Acute fever response in two humans under infection, Example 4. The class given is in vivo, human. The protocol:
FIG. 11: Numerical values of short term reduction in fever in disease after the DGA Activation (administration approximately 300 mg of D-glyceric acid mixed in water as calcium salt (=2× 200 mg of DGAcs). The results in this table are presented graphically in FIG. 5 and explained in Example 4. Additional Notes: 300 mg of D-glyceric acid is more precisely the same as 430 mg of calcium salt dehydrate formulation, because one calcium atom and 2 water molecules make up some 30% of the total molecular weight. *) Reduction in fever materialized but the symptoms of the disease e.g. pain remained. **) Rather stressful “absent day from work arrangements” by e-mail between 0 minutes and 15 minutes' measurements could possibly have kept fever up.
In Example 4 acute 15 min, 30 min, etc. fever responses of the DGA Activation in two individual under viral and/or bacterial infection (subjects S1 and S4 from e.g. Examples 1b-1f) were measured. Results are presented in graphical format in FIG. 5 and in numeric format in FIG. 11. The measurements of body temperatures after the DGA Activation were made in physiological state where infections (diseases) continue but they have nevertheless more or less stabilized. In this kind of a situation the immune system is activated above healthy and/or subclinical level. The objective was to verify possible spillover effects from reduction in inflammation and in oxidative stress towards fever. At the same the target was to gain more info on the size of suitable administration. (Before initiating any human tests full proof of safety was received from 3 week in vivo experiments with rats. The doses used in these clinical tests are at maximum less than 5% of the safe doses with rats in the 3-week safety tests.)

Read-outs that look alike come from different tables or passages of the source.

Take `O=C(O)[C@H](O)CO` [DGA, D-glyceric acid]: the “adverse health effects (feed intake, body weight development)” value in data set [1] is “No adverse health effects were noticed”. Further, the “time to restoring defecation” value with severe IBD (S4) fell in the range of 12 to 16 h. For the same molecule, in the data set with severe IBD (S4, Friday 1100 am), the “Blood CRP” value turned out to be 11. This molecule also showed a CRP level with severe IBD (S4, Monday 0030 pm, 3×200 mg four times a day) of 85. In addition, the fever in the data set on severe IBD (S4, Saturday 0939 pm after 3 doses of 3×200 mg, 36.80 before) was 36.03 Celsius; in the data set on severe IBD (S4, Sunday 0115 pm, normal 36.1) it was 35.83; with severe IBD (S4, Sunday 0145), 36.16. The CRP with severe IBD (S4, Wednesday noon, without antibiotics) is 22. Further, in the data set on severe IBD (in vivo), the side effects result is “did not cause any side effects”. For the same molecule, the “viability of ethanol-dosed gastric cells” value in data set [2] was “can increase viability of ethanol-dosed gastric cells”. Besides, in the data set on fever (2×200 mg oral dose mixed into water), the “reducing fever due to infection” value is listed as “very effective in reducing fever”. Moreover, the “immediate impact on fever” value in the data set with fever (S1, 1×200 mg, Monday 0908 pm) was “didn't seem to have any significant immediate impact on fever”. Further, the return of fever result in the data set on fever (S1 and S4) is on record as “returns almost to the starting level in 1 hour or at least in 1.5 hours”. Also, the “time to reduction of fever” value in the data set with fever (S1 and S4, 2×200 mg of DGAcs in water) is 15 to 30 min. Also, in the data set with fever (statistically very significant), the decline of fever entry is “modest”.
